Results on seven compounds are retold here after patent US20240226130A1, “4'-THIONUCLEOSIDE ANALOGUES AND THEIR PHARMACEUTICAL USE” (Gilead Sciences, Inc., priority 2022, published 2024).

pEC50: −log10 of the molar value. Where two headings read alike, the source gives them in different places. A value given as a limit tells only on which side of the number the result lay.

One data set deals with HIV-1 (IIIB). Nature of the data set: Antiviral (HIV) assay in MT-4 cells. Type of data set: cell-based. To be noted: read-out: MT4 HIV EC50. As for the experimental part:
Example 9: Antiviral (HIV) Assay in MT-4 Cells
Compounds were tested in a high-throughput 384-well assay format for their ability to inhibit the replication of HIV-1 (IIIB) in MT-4 cells. Compounds were serially diluted (1:3) in DMSO on 384-well polypropylene plates and further diluted 200-fold into complete RPMI media (10% FBS, 1% P/S) using the Biotek Micro Flow and Labcyte ECHO acoustic dispenser. Each plate contained up to 8 test compounds, with negative (no drug) and positive (5 μM AZT) controls. MT-4 cells were pre-treated with 10 μL of either RPMI (mock-infected) or a fresh 1:250 dilution of HIV-1 IIIB concentrated virus stock. Infected and uninfected MT-4 cells were further diluted in complete RPMI media and added to each plate using a Micro Flow dispenser. After 5 days incubation in a humidified and temperature-controlled incubator (37° C.), Cell Titer Glo (Promega) was added to the assay plates and chemiluminescence read using an Envision plate-reader. EC50 values were defined as the compound concentration that causes a 50% decrease in luminescence signal and were calculated using a sigmoidal dose-response model to generate curve fits and are shown in Table 1.

Data set [1] can be described thus: Cytotoxicity assay in MT-4 cells. Type of data set: cell-based. To be noted: human, uninfected MT-4 cells, read-out: MT4 CC50. As for the experimental part:
Example 10: Cytotoxicity Assay in MT-4 Cells
Assays were performed as described in Example 9 except uninfected MT-4 cells were added to each well containing test compound. In addition, 10 μM puromycin was added to the last column of each assay plate to assess a base level of cytotoxicity.

The mark [2] stands for this setting: Human immunodeficiency virus 1, MT4, 120 h, HIV-1 IIIB in MT-4 cells, 5 days, Cell Titer Glo.
Setting [3] is: Human immunodeficiency virus 1, IIIB, MT4, 120 h.

Turning to `C#C[C@]1(CO)S[C@@H](n2cnc3c(N)nc(N)nc32)C[C@@H]1O` [Compound 1, (2R,3S,5R)-5-(2,6-Diamino-9H-purin-9-yl)-2-ethynyl-2-(hydroxymethyl)tetrahydrothiophen-3-ol], the pEC50 in the data set on HIV-1 (IIIB) (setting [2]) is 6.17. Further, in data set [1], the CC50 at 5 days is over 25 µM.

As for `C#C[C@]1(CO)S[C@@H](n2cnc3c(NC4CC4)nc(N)nc32)C[C@@H]1O` [Compound 2, (2R,3S,5R)-5-(2-Amino-6-(cyclopropylamino)-9H-purin-9-yl)-2-ethynyl-2-(hydroxymethyl)tetrahydrothiophen-3-ol], in the data set on HIV-1 (IIIB) (setting [2]), the pEC50 is 5.34. The CC50 at 5 days in data set [1] is over 25 µM.

Regarding `C#C[C@]1(CO)S[C@@H](n2cnc3nc(N)nc(NC4CC4)c32)C[C@@H]1O` [Compound 3, (2R,3S,5R)-5-(2-Amino-6-(cyclopropylamino)-7H-purin-7-yl)-2-ethynyl-2-(hydroxymethyl)tetrahydrothiophen-3-ol], the pEC50 in the data set on HIV-1 (IIIB) (setting [2]) is under 4.60. In addition, the CC50 at 5 days in data set [1] was over 25 µM.

Turning to `C#C[C@]1(CO)S[C@@H](n2cnc3c(OCC)nc(N)nc32)C[C@@H]1O` [Compound 4, (2R,3S,5R)-5-(2-Amino-6-ethoxy-9H-purin-9-yl)-2-ethynyl-2-(hydroxymethyl)tetrahydrothiophen-3-ol], in the data set with HIV-1 (IIIB) (setting [2]), the pEC50 was 6.32. In data set [1], the CC50 at 5 days worked out at 23 µM.

With `C#C[C@]1(CO)S[C@@H](n2cnc3nc(N)nc(OCC)c32)C[C@@H]1O` [Compound 5, (2R,3S,5R)-5-(2-Amino-6-ethoxy-7H-purin-7-yl)-2-ethynyl-2-(hydroxymethyl)tetrahydrothiophen-3-ol], in the data set with HIV-1 (IIIB) (setting [2]), the pEC50 is under 5.30. Also, the 50% cytotoxic concentration (CC50) at 5 days in data set [1] is over 25 µM.

As to `C#C[C@]1(CO[P@@](=O)(N[C@@H](C)C(=O)OCC(CC)CC)Oc2ccccc2)S[C@@H](n2cnc3c(N)nc(N)nc32)C[C@@H]1O` [Compound 6, 2-Ethylbutyl ((S)-(((2R,3S,5R)-5-(2,6-diamino-9H-purin-9-yl)-2-ethynyl-3-hydroxytetrahydrothiophen-2-yl)methoxy)(phenoxy)phosphoryl)-L-alaninate], the pEC50 in the data set with HIV-1 (IIIB) (setting [3]) is 7.59. In addition, the CC50 at 5 days in data set [1] is over 25 µM.

Turning to `C#C[C@]1(CO[P@@](=O)(N[C@@H](C)C(=O)OCC(CC)CC)Oc2ccccc2)S[C@@H](n2cc(F)c(N)nc2=O)C[C@@H]1O` [Compound 9, 2-Ethylbutyl ((S)-(((2R,3S,5R)-5-(4-amino-5-fluoro-2-oxopyrimidin-1(2H)-yl)-2-ethynyl-3-hydroxytetrahydrothiophen-2-yl)methoxy)(phenoxy)phosphoryl)-L-alaninate], the pEC50 with HIV-1 (IIIB) (setting [3]) is 6.84. The CC50 at 5 days in data set [1] was found to be 23.2 µM.

In general, pEC50 refers to −log10 of the EC50, conventionally taken in molar units. A word on the CC50: it is the concentration giving 50% cytotoxicity.
